The source of these data is patent US7314633B2, “Carboxylate-gated-nitroxide (CGN) compounds and compositions and methods of use thereof” (SynZyme Technologies LLC, priority 2001, dated 2008).

Data set [1] in a line: S-band EPR imaging of penetration and compartmentalization in human skin. To be noted: human volunteer forearm, 3 μL 100 mM in DMSO, topical, by eight hours. The format is in vivo. As for the experimental part:
Preliminary S-band EPR spectroscopy and imaging experiments using DETOPS were performed on the skin of a human volunteer. […] Five minutes later, when the deposited solution dried, a specially designed positioning holder with a 7 mm diameter well and bottom disk that locked into a well in the resonator cap was attached to the skin to fix this region of skin to the surface resonator See, “In vivo EPR Imaging of a Distribution and Metabolism of Nitroxide Radicals in Human Skin,” He et al., J. of Magnetic Resonance 148, 155-164 (2001). EPR and EPRI measurements were then started. Measurements on the volunteer were performed for 15 to 20 minutes periods after which there were 30-minute rest periods in which the volunteer removed the arm from the resonator and the magnet. This holder fixed the skin positioning and assured a constant filling factor of the loaded resonator. The positioning holder was left attached to the arm for the entire series of measurements lasting up to 8 hours.
Referring to FIG. 23, a color-coded image of CNO penetration and compartmentalization in human skin is shown. […] The measurements were performed using S-band (2.2 GHz) EPR imaging system with a specially designed surface resonator as described in He et al., J. of Magnetic Resonance 148, 155-164 (2001). The dotted line marks the surface of the skin. […]

Data set [2] relates to cultured rat cortical neurons. Briefly: Hemoglobin toxicity in cultured rat cortical neurons (MTT). It is filed as cell-based. To be noted: hemoglobin 10 uM, 24 hours. As for the experimental part: E-TOPS is neuroprotective in a model of hemorrhagic transformation in stroke. Primary neuronal cultures were made from forebrains of fetal rat pups (embryonic day 15). The cells were dispersed by repeated mechanical trituration in neuronal culture medium (MEM Eagle (Sigma, M4526), supplemented with glutamine (2 mM), penicilin-streptomycine (50 Units/ml-0.05mg/ml), heat-inactivated horse serum (10%), fetal bovine serum (10%), glucose (0.5% or 28 mM). Following centrifugation (900 g; 5 min), the cells were placed onto poly-L-lysine-coated 96 well plates at a density of […]. Hemoglobin in saline was added at 10 uM final concentration and ETOPS were added at 10 uM, 1 uM, and 0.1 uM final concentration. 24 hours after incubation neuronal viability was quantitatively determined using the colorimetric MTT assay. MTT was added to each well such that the final concentration of the dye was 0.15 mg/ml. Plates were then returned to the incubator for 1 hour at which time unincorporated MTT was removed, and the plates allowed to air dry. The purple formazan product present in viable cells was then dissolved by adding acidified isopropanol (with 0.1 N HCl in) and the absorbance intensity (540 nm) was measured using a 96 well plate reader. % Control=(Test A540/Mean Control)×100%.

A short description of data set [3]: Inhibition of peroxynitrite-dependent nitration of HPA. Particulars: 1 mM HPA, 1 mM peroxynitrite, pH 6.5. The format is biochemical. How it is done: Peroxynitrite was made by a procedure described previously. Solution of 1 mM 4-hydroxyphenylacetic acid (HPA, Sigma) were made in 100 mM sodium phosphate at pH 6.5. […] Peroxynitrite was added at a final concentration of 1 mM to start the nitration. […] The nitration was followed spectrophotometrically at 405 nm. The concentration of 4-hydroxy-3-nitrophenylacetate was determined spectrophotometrically (430=4400 M^−1 cm^−1) after the pH of reaction mixtures were increased to 10-11 with NaOH.

Data set [4] is described as follows: Water/octanol partition measured by EPR. It is filed as physicochemical. Particulars: 15 minutes, TOPS = presumed product after NaOH hydrolysis of DE-TOPS. How it is done:
(§1) After 15 minutes, a 40 μl sample of water or oil was taken for EPR spectral analysis. […] The solution was neutralized with hydrochloric acid and added to 1 ml of water and 2 ml of octanol. The mixture was allowed to partition, and after 15 minutes, a 40 μl sample of water or oil was taken for EPR spectral analysis. EPR spectral were taken using a Varian E9 spectrophotometer. Sweep width was 100 G, frequency was 9.535 GHz, microwave power was […] and the modulation frequency was 100 Hz.

A short description of data set [5]: Metabolism and excretion after topical application (EPR of urine and plasma). To be noted: after 6 hours; 10 day daily topical application. The format is in vivo, mouse.
The nature of data set [6]: Chemical hydrolysis of esters by NaOH or KOH, followed by EPR. It is filed as physicochemical. To be noted: sodium hydroxide (NaOH), aqueous, EPR pre- and post-hydrolysis. As for the experimental part:
as §1
20 mg of ^14N-^15N-TE-TOPS was mixed in 1 ml of 10 mM KOH and allowed to incubate overnight at room temperature. The solution was neutralized with hydrochloric acid. EPR spectral were taken using a Varian E9 spectrophotometer. Sweep width was 100 G, frequency was 9.535 GHz, microwave power was […] and the modulation frequency was 100 Hz.

The next data set concerns hairless mice. How it is done: Topical application was daily 10 minutes prior to UVB radiation. UVB dose was 200 mJ/cm2 during 15 minutes. UVB lamp has spectrum distribution of 290-310 nm at 80% below 310 nm at 20%.
Same protocol as in example 13 was used for this study.

The next data set deals with Rhino mouse. Briefly: Anti-wrinkle effect in Rhino mouse exposed to UVB. Particulars: compared with Retin-A. The format is in vivo. As for the experimental part:
To determine the advantage of CGN compared to commercially available topical therapies, BE-TOPS, Retin-A, and a placebo were administered to the skin of mice exposed to alternate days of UVB radiation.

For data set [7], the system named is cultured rat cortical neurons. Briefly: SIN-1 (peroxynitrite generator) toxicity in cultured rat cortical neurons (MTT). It is filed as cell-based. To be noted: SIN-1 1 mM, compound added 15 minutes prior. How it is done:
Primary neuronal cultures were made from forebrains of fetal rat pups (embryonic day 15). The cells were dispersed by repeated mechanical trituration in neuronal culture medium (MEM Eagle (Sigma, M4526), supplemented with glutamine (2 mM), penicilin-streptomycine (50 Units/ml-0.05 mg/ml), heat-inactivated horse serum (10%), fetal bovine serum (10%), glucose (0.5% or 28 mM). Following centrifugation (900 g; 5 min), the cells were placed onto poly-L-lysine-coated 96 well plates at a density of […]. Cytotoxicity was induced in the cells according to a published procedure (Carroll et al 2000). SIN-1 (3-morpholinosydnonimine, Sigma), a PN generator, was dissolved in 50 mM phosphate (pH 5.0) just prior to use, and added to each well to give the final concentration of 1 mM. […] Neuronal viability was quantitatively determined using the colorimetric MTT assay. MTT was added to each well such that the final concentration of the dye was 0.15 mg/ml. Plates were then returned to the incubator for 1 hour at which time unincorporated MTT was removed, and the plates allowed to air dry. The purple formazan product present in viable cells was then dissolved by adding acidified isopropanol (with 0.1 N HCl in) and the absorbance intensity (540 nm) was measured using a 96 well plate reader. % Control=(Test A540/Mean Control)×100%.

Data set [8] is described as follows: In vivo plasma half-life by EPR, co-administration of 14N E-TOPS and 15N Tempol. As for the experimental part:
Plasma half-life is measured by collecting the spectrum each minute for 60 to 90 minutes.

The conditions of data set [9]: gold standard, previously shown; cited from earlier work.
Data set [10] in a line: Acute toxicity LD50 / survival rate in mice. It is filed as in vivo. Particulars: mouse, in vivo. The text has this: (§2) As noted above, the practical, clinical application of unbound, small molecule nitroxides has been limited by the reduced activity in vivo and comparatively short in vivo half-life. The result of the reduced in vivo half-life is the need to administer a larger dose to achieve the same therapeutic or diagnostic effect.

A further data set has as its system mice. Briefly: Acute toxicity LD50 / survival rate in mice. It is filed as in vivo. To be noted: mice, dosage of 2.0 mmol/kg.
From the text: as §2

In another data set the test system is human Y-79 cells. As to the kind of experiment: TNF-α induced apoptosis of Y-79 cells (annexin V flow cytometry). It is filed as cell-based. Particulars: Y-79 cell line, E-TOPS 100 μg/ml, TNF-α 5.0 ng/ml, 6, 24 and 48 hours. As for the experimental part: The UV light induced apoptosis may be measured by a model in which apoptosis is induced by exposure to tumor necrosis factor alpha (TNF-α). […] Cultured human Y-79 cells were maintained at pH 7.4 in culture flasks in a mixture of amphotericin/penicillin/streptomycin treated (1% v/v) RPMI 1640 media with L-glutamine and 10% fetal bovine serum in an incubator under 10%-CO2/90%-air brood conditions at 37 degrees Celsius and 20% humidity. […] From this stock solution, 10 μl was added to 1 ml of the cell suspension solution so that the final concentration of ETOPS was 100 μg/ml of ETOPS. Human TNF-μ(10 μg/1 ml) was used to prepare serial media dilutions to obtain TNF-α concentrations of 5.0 ng/ml. Cell densities and viability were determined by trypan blue exclusion assay on a Zeiss inverted microscope to ensure cell concentrations prior to cytometric assaying. […]
Flow cytometric methods were employed to take advantage of annexin V's reversible and calcium-dependent binding to negatively charged phosphatidylserine (PS) residues in a 1:50 annexin to PS ratio. […] Total samplings averaged 5000 cell events counted out of sample populations averaging well over 1.0×10^6 cells/ml with statistics and regression analysis given for each set of sample quadrants using CellQuest softvare. […]
(Flow cytometry measures light scatter and fluorescence of single cells or particles in a stream.)

As to `CCOC(=O)CC(C(=O)OCC)=C1CC(C)(C)N([O])C(C)(C)C1` [DE-TOPS, Di-ethyl-2,2,6,6-tetramethyl-1-oxy-4-piperidylidene-succinate], the “distribution in skin layers compared to tempone (1-D EPR spatial image)” value in [1] is “enhanced visual distribution throughout the dermis and epidermis”. Moreover, in data set [2], the “inhibition of hemoglobin-induced toxicity of cortical neurons” value (“inhibition … of cortical neurons” below) is listed as “dose dependent inhibition”. Moreover, the “inhibition of nitration of HPA by peroxynitrite” value (from here on “inhibition of nitration of HPA”) in [3] is given as “inhibited”. Moreover, the “partition coefficient (LogP)” value in data set [4] was 1.7. Further, in data set [5], the “EPR signal in urine compared with plasma” value is listed as “stronger EPR signal”. Moreover, the “hydrolysis of DE-TOPS to TOPS” value in data set [6] is reported as “near complete conversion”. Besides, in the data set with hairless mice (100 mM in petroleum base, topical daily 10 minutes prior to UVB, 11 days, 200 mJ/cm2), the “skin thickening induced by UVB (histopathology)” value was “dramatically reduces skin thickening”. The “UVB light induced skin thickening, hemorrhage, inflammation” value in the data set on hairless mice (applying pre and post radiation in mice) is “reduces UVB light induced skin thickening, hemorrhage, inflammation”. Besides, the “UVB induced skin lesion, chronic” value with hairless mice (same mice kept for 4 month, applied 2 hour before UVB radiation) is reported as “inhibited”. Besides, the “UVB sensitivity of treated skin” value in the data set with Rhino mouse is on record as “not UVB sensitive”. Also, the “inhibition of peroxynitrite-induced (SIN-1) toxicity on cortical neurons” value (“inhibition of peroxynitrite-induced” for short) in data set [7] is reported as “dose dependent inhibition”.

In the case of `CC1(C)CC(=C(CC(=O)O)C(=O)O)CC(C)(C)N1[O]` [TOPS, 2,2,6,6-tetramethyl-1-oxyl-piperidinene-4-succinate], the “inhibition … of cortical neurons” value in [2] is listed as “dose dependent inhibition”. Further, the “inhibition of nitration of HPA” value in data set [3] was “inhibited”. In data set [4], the “partition coefficient (LogP)” value was −0.9. For the same compound, the “inhibition of peroxynitrite-induced” value in [7] was “dose dependent inhibition”.

By half-life is commonly meant the time in which the quantity being followed falls by half. As a reminder, the LD50 is the dose at which mortality reaches 50%. Take `CC1(C)CC(O)CC(C)(C)N1[O]` [Tempol, 4-hydroxy-2,2,6,6-tetramethylpiperidine-1-oxyl]: the half-life in data set [8] (mouse, in vivo, ip, 80 mg/kg) is more than 40 min. Besides, the “prevention of nitration of HPA by peroxynitrite in vitro” value in data set [9] is listed as “prevent the nitration”. Moreover, the LD50 in data set [10] is 375 mg/kg. The survival rate result in the data set on mice is given as “zero survival rate”.

Take “monoethyl-2,2,6,6-tetramethyl-1-oxy-4-piperidylidene-succinate [E-TOPS]”: the “in vivo half-life compared to Tempol” value in data set [8] (intravenous, intramuscular, oral and intraperitoneal administration at 200 mg/kg) is on record as “increased in vivo half-life compared to Tempol”. Also, the “in vivo plasma half-life compared to Tempol” value is “extended” in [8] (mice, administered orally, 125 mg/kg E-TOPS and 80 mg/kg Tempol); “extended” in data set [8] (mice, co-administrated intravenously); “dramatically extended over Tempol for at least 60 minutes” in [8] (mice, intramuscular co-administration). In addition, the “time with substantially higher activity than Tempol in plasma” value in data set [8] (mice, i.p., 125 mg/kg E-TOPS co-administered with Tempol) is on record as “at least 80 minutes”. In addition, in the data set on human Y-79 cells, the “apoptosis induced by TNF-α” value is given as “reduces apoptosis”. Also, the “inhibition … of cortical neurons” value in data set [2] is given as “dose dependent inhibition”. The neuronal viability result in data set [2] (ETOPS at 10 uM, 1 uM, 0.1 uM) was “increased neuronal viability”. In addition, the “inhibition of nitration of HPA” value in data set [3] is recorded as “inhibited”. Also, the “inhibition of peroxynitrite-induced” value in data set [7] is reported as “dose dependent inhibition”.
